Source: patent publication US9309263B2, “Fused multi-cyclic sulfone compounds as inhibitors of beta-secretase and methods of use thereof” (AMGEN INC., priority 2013, dated 2016)
Read-outs that look alike come from different tables or passages of the source.

How the values were obtained:
[1] = molecular target: Beta Secretase enzyme (BACE) (Homo sapiens, UniProt P56817); assay: In vitro enzymatic BACE FRET assay; format: biochemical; conditions: read-out: BACE1 FRET assay IC50
Method in brief: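 Enzyme (0.2 nM) pre-incubated 1 h with serially diluted inhibitors in 0.05 M acetate pH 4.2, 10% DMSO, 100 uM genapol. Reaction started with 50 nM fluorophore/quencher peptide FRET substrate, run 1 h, stopped with Tris to neutral pH. Fluorescence read at excitation 488 nm, […].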

[2] = system: Aβ 40 in conditioned medium of cells stably expressing Amyloid Precursor Protein (APP); assay: In vitro BACE cell-based assay (Aβ 40 sandwich ELISA); conditions: Homo sapiens, HEK293
Method in brief: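 APP-expressing cells, 24 h pre-culture in DMEM/10% FBS, treated 24 h with 10-point compound dilutions from 100 or 10 μM top, 0.1% DMSO final. Secreted Aβ40 quantified by sandwich ELISA (pAb40 capture, biotinylated 6E10 detection, europium TRF); IC50 from percent inhibition versus concentration.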

Cathepsin D (Cat D) = Cathepsin D (Cat D) (Homo sapiens, UniProt P07339); assay: In vitro enzymatic Cathepsin D (Cat D) FRET assay; format: biochemical
Sequence of Cathepsin D (Cat D) (P07339 65-412, species assumed): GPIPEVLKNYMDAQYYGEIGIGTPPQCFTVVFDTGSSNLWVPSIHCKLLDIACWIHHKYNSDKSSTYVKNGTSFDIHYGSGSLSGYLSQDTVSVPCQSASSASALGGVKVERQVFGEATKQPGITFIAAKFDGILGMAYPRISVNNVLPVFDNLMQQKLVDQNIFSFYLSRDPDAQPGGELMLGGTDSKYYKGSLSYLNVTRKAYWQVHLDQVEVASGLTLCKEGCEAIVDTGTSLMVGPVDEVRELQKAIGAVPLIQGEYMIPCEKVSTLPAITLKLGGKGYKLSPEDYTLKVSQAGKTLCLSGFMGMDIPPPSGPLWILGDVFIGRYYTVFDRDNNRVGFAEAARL
Method in brief: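 Recombinant CHO-expressed enzyme (9 nM) pre-incubated 1 h with serially diluted inhibitor in 0.05 M citrate pH 3.5, 10% DMSO final, 5 mM CHAPS. Reaction started with 20 nM FRET peptide substrate, run 1 h, stopped with Tris to neutral pH; fluorescence read at ex 500/em 580 nm.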

[3] = average IC50, in vitro enzymatic BACE FRET assay
[4] = average IC50, HEK cell assay, Aβ 40 readout
[5] = Cathepsin D FRET assay, read-out: CatD IC50
[6] = text summary referring to data in Table 2

Sequence of Beta Secretase enzyme (BACE) (P56817 46-501): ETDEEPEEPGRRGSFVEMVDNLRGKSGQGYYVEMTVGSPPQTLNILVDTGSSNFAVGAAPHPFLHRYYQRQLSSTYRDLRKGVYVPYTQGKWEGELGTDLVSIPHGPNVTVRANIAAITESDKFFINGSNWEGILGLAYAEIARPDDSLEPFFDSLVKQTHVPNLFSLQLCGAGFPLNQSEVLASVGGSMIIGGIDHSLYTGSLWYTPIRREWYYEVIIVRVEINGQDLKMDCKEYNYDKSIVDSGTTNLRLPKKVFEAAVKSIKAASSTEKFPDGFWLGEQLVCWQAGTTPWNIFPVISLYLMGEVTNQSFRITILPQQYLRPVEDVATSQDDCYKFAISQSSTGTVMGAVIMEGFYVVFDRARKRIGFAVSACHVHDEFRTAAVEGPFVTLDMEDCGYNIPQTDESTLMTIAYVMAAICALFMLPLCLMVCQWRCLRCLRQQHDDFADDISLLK

SMILES | IC50 [1, 3] | IC50 [2, 4] | IC50 (Cathepsin D (Cat D); [5]) | IC50 ([1]; average IC50) | IC50 ([2]; HEK cell, average IC50) | IC50 (Cathepsin D (Cat D); read-out: CatD IC50) | IC50 ([2]; HEK cells, average IC50) | IC50 (Cathepsin D (Cat D); [6])
Cc1cc(COc2cnc3c(Nc4ccc5c(c4)[C@@]4(C)N=C(N)C(C)(C)S(=O)(=O)[C@@H]4C[C@H](C)O5)nccc3n2)on1 [Example 137, (4aR,6S,11bR)-3,3,6,11b-tetramethyl-N^~10^~-(2-((3-methyl-5-isoxazolyl)methoxy)pyrido[3,4-b]pyrazin-5-yl)-4a,5,6,11b-tetrahydro-3H-[1]benzoxepino[4,5-b][1,4]thiazine-2,10-diamine 4,4-dioxide] | 0.018 µM | 0.091 µM | > 133 µM |  |  |  |  | 
Cc1cc(Cl)cnc1C(=O)Nc1ccc2c(c1)[C@]1(C)N=C(N)C(C)(C)S(=O)(=O)[C@H]1CCO2 (racemic) [Example 4, N-((4aRS,11bRS)-2-amino-3,3,11b-trimethyl-4,4-dioxido-4a,5,6,11b-tetrahydro-3H-benzo[6,7]oxepino[4,5-b][1,4]thiazin-10-yl)-5-chloro-3-methylpicolinamide] |  |  |  | 0.004 µM | 0.01 µM | > 100 µM |  | 
CC1(C)C(N)=N[C@]2(C)c3cc(Nc4nccc5cc(Cl)cnc45)ccc3CCC[C@@H]2S1(=O)=O [Example 34, (4aS,11bR)-N^~10^~-(3-chloro-1,7-naphthyridin-8-yl)-3,3,11b-trimethyl-3,4a,5,6,7,11b-hexahydrobenzo[3,4]cyclohepta[1,2-b][1,4]thiazine-2,10-diamine 4,4-dioxide] |  |  |  | 0.071 µM | 0.464 µM | 409 µM |  | 
CC#CCOc1cnc(C(=O)Nc2ccc3c(c2)[C@@]2(C)N=C(N)C(C)(C)S(=O)(=O)[C@@H]2C[C@H](C)O3)cn1 [Example 51, N-((4aR,6S,11bR)-2-amino-3,3,6,11b-tetramethyl-4,4-dioxido-4a,5,6,11b-tetrahydro-3H-[1]benzoxepino[4,5-b][1,4]thiazin-10-yl)-5-(2-butyn-1-yloxy)-2-pyrazinecarboxamide] |  |  |  | 0.001 µM | 0.0004 µM | 461 µM |  | 
Cc1cc(C(F)(F)F)cnc1C(=O)Nc1ccc2c(c1)[C@@]1(CF)N=C(N)C(C)(C)S(=O)(=O)[C@H]1CCO2 [Example 116, N-((4aS,11bS)-2-amino-11b-(fluoromethyl)-3,3-dimethyl-4,4-dioxido-4a,5,6,11b-tetrahydro-3H-[1]benzoxepino[4,5-b][1,4]thiazin-10-yl)-3-methyl-5-(trifluoromethyl)-2-pyridinecarboxamide] | 0.011 µM | 0.014 µM | > 400 µM |  |  |  |  | 
CC1(C)C(N)=N[C@]2(C)c3cc(Nc4ncnc5cc(OCC6CC6)cnc45)ccc3OCC[C@H]2S1(=O)=O [Example 167, (4aR,11bR)-N1^~10^~-(7-(cyclopropylmethoxy)pyrido[3,2-d]pyrimidin-4-yl)-3,3,11b-trimethyl-4a,5,6,11b-tetrahydro-3H-[1]benzoxepino[4,5-b][1,4]thiazine-2,10-diamine 4,4-dioxide] |  |  |  | 0.008 µM |  | 384 µM | 0.029 µM | 
C[C@H]1C[C@@H]2[C@](C)(N=C(N)C(C)(C)S2(=O)=O)c2cc(NC(=O)c3cnc(Cl)cn3)ccc2O1 [Example 75, N-((4aR,6S,11bR)-2-amino-3,3,6,11b-tetramethyl-4,4-dioxido-4a,5,6,11b-tetrahydro-3H-[1]benzoxepino[4,5-b][1,4]thiazin-10-yl)-5-chloro-2-pyrazinecarboxamide] |  |  |  | 0.004 µM | 0.061 µM | 217 µM |  | 
Cc1cc(Cl)cnc1C(=O)Nc1ccc2c(c1)[C@@]1(C)N=C(N)C(C)(C)S(=O)(=O)[C@@H]1CC(C)(C)O2 [Example 190, N-((4aR,11bR)-2-amino-3,3,6,6,11b-pentamethyl-4,4-dioxido-4a,5,6,11b-tetrahydro-3H-[1]benzoxepino[4,5-b][1,4]thiazin-10-yl)-5-chloro-3-methyl-2-pyridinecarboxamide] |  |  |  | 0.005 µM |  | 441 µM | 0.002 µM | 
CC1(C)C(N)=N[C@]2(C)c3cc(NC(=O)c4ccc(Cl)cn4)ccc3OCC[C@@]2(F)S1(=O)=O [Example 66, N-((4aR,11bR)-2-amino-4a-fluoro-3,3,11b-trimethyl-4,4-dioxido-4a,5,6,11b-tetrahydro-3H-[1]benzoxepino[4,5-b][1,4]thiazin-10-yl)-5-chloro-2-pyridinecarboxamide] |  |  |  | 0.008 µM | 0.089 µM | 269 µM |  | 
CC1(C)C(N)=N[C@]2(CF)c3cc(NC(=O)c4ccc(OC(F)F)cn4)ccc3OCC[C@H]2S1(=O)=O [Example 123, N-((4aR,11bS)-2-amino-11b-(fluoromethyl)-3,3-dimethyl-4,4-dioxido-4a,5,6,11b-tetrahydro-3H-[1]benzoxepino[4,5-b][1,4]thiazin-10-yl)-5-(difluoromethoxy)-2-pyridinecarboxamide] | 0.019 µM | 0.033 µM | 4100 µM |  |  |  |  | 
CC1(C)C(N)=N[C@]2(C)c3cc(NC(=O)c4ccc(OCC5CC5)cn4)ccc3OCC[C@H]2S1(=O)=O [Example 175, N-((4aR,11bR)-2-amino-3,3,11b-trimethyl-4,4-dioxido-4a,5,6,11b-tetrahydro-3H-[1]benzoxepino[4,5-b][1,4]thiazin-10-yl)-5-(cyclopropylmethoxy)-2-pyridinecarboxamide] |  |  |  | 0.009 µM |  | 1510 µM | 0.017 µM | 
CC1(C)C[C@@H]2[C@](C)(N=C(N)C(C)(C)S2(=O)=O)c2cc(NC(=O)c3ncc(Cl)cc3Cl)ccc2O1 [Example 128, N-((4aR,11bR)-2-amino-3,3,6,6,11b-pentamethyl-4,4-dioxido-4a,5,6,11b-tetrahydro-3H-[1]benzoxepino[4,5-b][1,4]thiazin-10-yl)-3,5-dichloro-2-pyridinecarboxamide] | 0.008 µM | 0.003 µM | 593 µM |  |  |  |  | 
Cc1cc(C#N)cnc1C(=O)Nc1ccc2c(c1)[C@@]1(C)N=C(N)C(C)(C)S(=O)(=O)[C@@H]1C[C@H](C)O2 [Example 57, N-((4aR,6S,11bR)-2-amino-3,3,6,11b-tetramethyl-4,4-dioxido-4a,5,6,11b-tetrahydro-3H-[1]benzoxepino[4,5-b][1,4]thiazin-10-yl)-5-cyano-3-methyl-2-pyridinecarboxamide] |  |  |  | 0.002 µM | 0.0007 µM | 1460 µM |  | > 1200 µM
Cc1cc(C(F)(F)F)cnc1C(=O)Nc1ccc2c(c1)[C@@]1(C)N=C(N)C(C)(C)S(=O)(=O)[C@@H]1CCO2 [Example 188, N-((4aR,11bR)-2-amino-3,3,11b-trimethyl-4,4-dioxido-4a,5,6,11b-tetrahydro-3H-[1]benzoxepino[4,5-b][1,4]thiazin-10-yl)-3-methyl-5-(trifluoromethyl)-2-pyridinecarboxamide] |  |  |  | 0.008 µM |  | 1550 µM | 0.003 µM | 
CC1(C)C(N)=N[C@]2(C)c3cc(NC(=O)c4cnc(OCC(F)F)cn4)ccc3OCC[C@H]2S1(=O)=O [Example 90, N-((4aR,11bR)-2-amino-3,3,11b-trimethyl-4,4-dioxido-4a,5,6,11b-tetrahydro-3H-benzo[6,7]oxepino[4,5-b][1,4]thiazin-10-yl)-5-(2,2-difluoroethoxy)pyrazine-2-carboxamide] | 0.007 µM | 0.011 µM | 919 µM |  |  |  |  | 
Cc1nc(OCC(F)F)cnc1C(=O)Nc1ccc2c(c1)[C@@]1(C)N=C(N)C(C)(C)S(=O)(=O)[C@@H]1CCO2 [Example 91, N-((4aR,11bR)-2-amino-3,3,11b-trimethyl-4,4-dioxido-4a,5,6,11b-tetrahydro-3H-[1]benzoxepino[4,5-b][1,4]thiazin-10-yl)-5-(2,2-difluoroethoxy)-3-methyl-2-pyrazinecarboxamide] | 0.019 µM | 0.027 µM | 1870 µM |  |  |  |  | > 1200 µM
CC1(C)C(N)=N[C@]2(C)c3cc(NC(=O)c4ncc(Cl)cc4Cl)ccc3CCC[C@H]2S1(=O)=O [Example 44, N-((4aR,11bR)-2-amino-3,3,11b-trimethyl-4,4-dioxido-3,4a,5,6,7,11b-hexahydrobenzo[3,4]cyclohepta[1,2-b][1,4]thiazin-10-yl)-3,5-dichloro-2-pyridinecarboxamide] |  |  |  | 0.005 µM | 0.016 µM | 541 µM |  | 
CC#C[C@@H](C)Oc1cnc2c(Nc3ccc4c(c3)[C@@]3(C)N=C(N)C(C)(C)S(=O)(=O)[C@@H]3CCO4)ncc(F)c2c1 (single isomer, unassigned) [Example 71] |  |  |  | 0.12 µM | 2.36 µM | 186 µM |  | 
Cc1nc(OCC(F)(F)F)cnc1C(=O)Nc1ccc2c(c1)[C@@]1(C)N=C(N)C(C)(C)S(=O)(=O)[C@@H]1CCO2 [Example 23, N-((4aR,11bR)-2-amino-3,3,11b-trimethyl-4,4-dioxido-4a,5,6,11b-tetrahydro-3H-[1]benzoxepino[4,5-b][1,4]thiazin-10-yl)-3-methyl-5-(2,2,2-trifluoroethoxy)-2-pyrazinecarboxamide] |  |  |  | 0.003 µM | 0.01 µM | 1400 µM |  | 
C[C@]12N=C(N)C3(CCC3)S(=O)(=O)[C@@H]1CCOc1ncc(NC(=O)c3ccc(C#N)cn3)cc12 [Example 63, N-((4a′R,11b′R)-2′-amino-1113′-methyl-4′,4′-dioxido-4a′,5′,6′,11b′-tetrahydrospiro[cyclobutane-1,3′-pyrido[3′,2′:6,7]oxepino[4,5-b][1,4]thiazin]-10′-yl)-5-cyano-2-pyridinecarboxamide] |  |  |  | 0.036 µM | 0.164 µM | 868 µM |  | > 800 µM
